Measurements: publication PMC10447463, “Data-mining unveils structure–property–activity correlation of viral infectivity enhancing self-assembling peptides” (Nature Communications, 2023)
Read-outs that look alike come from different tables or passages of the source.

Key:
[1] = test system: HIV-1 infection of TZM-bl cells; assay: HIV-1 infectivity enhancement assay, β-galactosidase luminescence; assay type: cell-based; conditions: for Rel-EFC / Log10 Infection Rel EFC: 1.3 µM peptide; for Rel-EFC: infection relative to EF-C (QCKIKQIINMWQ = 1); for Log10 Infection Rel EFC: log10 of infection relative to EF-C; for Log Infectivity: Log10 infection relative to EF-C, TZM-bl cells, asymmetric std dev errors; for Log10 Infection Rel EF-C: HIV-1 infection of TZM-bl cells; for Log10 of Rel to EFC (Feb2021): Log10 of infection relative to EF-C, all peptides of FigS16
[2] = assay type: physicochemical; conditions: for Tht category (> 2 to blank = +): Fig S10 panel D; for ThT Cat,: ThT category; for ThT Cat. / ThT-Fluorescence (categorical): ThT-active if fluorescence at least twice the control
Summary of the method: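 Fibrils (1 mg/mL solution) were mixed with 50 µM ThT in PBS for 15 min at RT, and fluorescence was read at λex 440/λem 488 nm against a PBS blank, as a triplicate mean ± SD. Zeta potential came from electrophoretic mobility (Smoluchowski) after 1 d aggregation at 1 mg/mL in PBS pH 7.4, diluted into 1 mM KCl.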

[3] = β-sheet content by ATR-FT-IR; assay type: physicochemical; conditions: Fig. S7 panel A; β-sheet content by ATR-FT-IR
Summary of the method: (§1)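 Measurements on freeze-dried PNF powders used a diamond ATR element, 64 scans each, with β-sheet fraction derived as previously reported. CR reflects loss of fluorescamine-reactive monomer after 3 kDa ultrafiltration, averaged over triplicates.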

[4] = Conversion rate (CR) assay with fluorescamine; assay type: physicochemical; design: key to CR: % = 100−100×filtrate/original fluorescence intensity; conditions: conversion rate, fluorescamine assay; for CR / %: Fig. S7 panel B
Summary of the method: as §1

[5] = Fig. S7 panel A (plotted against β-sheet content)
[6] = Fig. S7 panel B (plotted against CR), rounded to two decimals
[7] = Log10 of infection rate relative to EF-C, Figure 3A source data
[8] = infection rate relative to EF-C, log10, data of Figure 2D
[9] = infection rate relative to EF-C, log10, source data of Figure 2C
[10] = ThT fluorescence category, 1 if Rel. ThT >2

| Sequence | Rel-EFC [1] | Log10 Infection Rel EFC [1] | Log Infectivity [1, 5] | Log Infectivity [1, 6] | Log10 Infection Rel EF-C [1, 7] | Log10 Infection Rel EF-C [1, 8] | Log10 Infection Rel EF-C [1, 9] | Log10 of Rel to EFC (Feb2021) [1] | Tht category (> 2 to blank = +) [2] | ThT Cat. ([2]; Fig S10 panel E) | ThT Cat, ([2]; 1 if Rel. ThT >2) | ThT Cat. [2, 10] | ThT Cat. / ThT-Fluorescence (categorical) [2] | b -sheet / % [3] [%] | CR / % [4] [%] | CR [4] |
| --- | --- | --- | --- | --- | --- | --- | --- | --- | --- | --- | --- | --- | --- | --- | --- | --- |
| RGDSGGGGGGKIKIQIC | 0,87 | -0,06 | -0.0628 | -0.06 | -0.06 | -0.0628 | -0.0628 | -0.06 | 1 (ThT. Cat is 1, if Rel. ThT >2) | 1 (ThT. Cat is 1, if Rel. ThT >2) | 1 (ThT. Cat is 1, if Rel. ThT >2) | 1 (ThT. Cat is 1, if Rel. ThT >2) | 1 (ThT. Cat is 1, if Rel. ThT >2) | 40.62 | 54.7 | 54.68 |
| RGDSKIKIQIC | 0,6 | -0,22 | -0.2249 | -0.22 | -0.22 | -0.2249 | -0.2249 | -0.22 | 1 (ThT. Cat is 1, if Rel. ThT >2) | 1 (ThT. Cat is 1, if Rel. ThT >2) | 1 (ThT. Cat is 1, if Rel. ThT >2) | 1 (ThT. Cat is 1, if Rel. ThT >2) | 1 (ThT. Cat is 1, if Rel. ThT >2) | 38.56 | 43.4 | 43.38 |
